# Reference: patent US11331371B2, “Labyrinthopeptins as anti-viral agents” (Helmholtz-Zentrum Für Infektionsforschung GMBH, priority 2015, dated 2022)
# Like-named read-outs stand apart in the source and are kept apart here.
# Columns and labels:
# ZIKV (Strain MR766-NIID) = conditions: read-out: IC50 of the anti-viral activity, ZIKV; Huh-7.5 cells, MOI 0.5, 48 h, genome copy equivalents
# [1] = tested on: peripheral blood mononuclear cells (PBMCs); conditions: cited from earlier work
# wild-type RSV (hRSV) = conditions: read-out: IC50 of the anti-viral activity, RSV; intracellular RSV-P staining, HEp 2 cells, MOI 1, 18 h post infection
# [2] = Cell-based HTS system for cytotoxic concentration (CC50), FF-luc HEp-2 cells; conditions: 72 h, concentrations up to 100 μM, read-out: half maximal cytotoxic concentration (CC50)
# Method: Cells (e.g. HEp-2 cells), which stably express the reporter gene of a firefly luciferase (FF-luc), may be seeded in a 96-well plate in media, e.g. in Gibco® Advanced MEM. After 72 h of incubation at 37° C. in the presence of increasing concentrations of the labyrinthopeptin, labyrinthopeptin derivative or combination to be tested (e.g. up to 100 μM), the cells may be lysed and the extinction of the FF-luc (RLU) may be measured. Therefore, a plate luminometer (Berthold) may be used. The number of surviving cells is […] proportional to residual luciferase expression.
# A cell-based screening system was used to determine the cytotoxic concentration (CC50) of labyrinthopeptin A1 and A2.
# 1×10^4 HEp-2 cells, which are stably expressing the reporter gene of a firefly luciferase (FF-luc), were seeded in a 96-well plate in 200 μl appropriate media. After 72 h of incubation at 37° C. in the presence of increasing concentrations of labyrinthopeptin A1 or A2 up to 100 μM, the cells have been lysed in 35 μl lysis buffer and the extinction of the FF-luc (RLU) was measured using a plate luminometer (Berthold). The number of surviving cells is […] proportional to residual luciferase expression.
# Huh 7.5 Fluc cells = assay: Cell viability (firefly luciferase) in the HCV assay
# KSHV = conditions: read-out: IC50 of the anti-viral activity, KSHV; HEK 293 cells, MOI 0.01, 48 h
# [3] = tested on: VSV glycoprotein-mediated cell entry (VSV-G-pseudotyped lentiviral particles); conditions: 48 h
# TBEV (Toro isolate) = conditions: read-out: IC50 of the anti-viral activity, TBEV; Vero-B4 cells, MOI 0.01, 3 days, estimated by visual inspection
# [4] = tested on: human respiratory syncytial virus (RSV); conditions: read-out: IC50, inhibition of RSV induced cell death; FF-luc HEp-2 cells, MOI 3, 72 h, indirect assay
# [5] = tested on: GFP-expressing CMV (HCMV) strain pHG-1 (HT8-GFP, AD169-based); conditions: read-out: IC50 of the anti-viral activity, CMV, NHDF cells, MOI 0.5, GFP at day 4 post infection
# HCV JcR2a = conditions: Huh 7.5 Fluc cells, Renilla luciferase after 48 h
# [6] = tested on: CHIKV glycoprotein-mediated cell entry (CHIKV gp-pseudotyped lentiviral particles); conditions: CHIKV glycoprotein pseudotypes, 293T cells, 48 h
# [7] = tested on: Dengue Virus (Type 2 New Guinea C); assay: Dose response assay, DENV infection of Huh-7.5 cells, DENV envelope protein immunostaining, high-content imaging; type: cell-based; conditions: MOI 0.5, 48 h post-infection; for IC50: read-out: IC50 of the anti-viral activity, DENV
# Method: Huh-7.5 cells (3×10^4 per well) were seeded in black 96-well optical-bottom plates [Nunc] in full growth medium one day prior to infection. After washing with PBS, 40 μl assay medium (5% FBS) was added to cells containing either Laby A1, Laby A2 (final conc. 50, 16.7, 5.56, 1.85, 0.62, 0.21, 0.069 μg/ml) or a combination of Laby A1 and Laby A2 (25, 8.3, 2.8, 0.93, 0.31, 0.10, 0.034 μg/ml each). Treatments were run in doublets. PBS served as a control. After 30 min of incubation, cells were infected with Dengue Virus (Type 2 New Guinea C) at an MOI of 0.5 to give a final volume of 60 μl/well. After 2 h incubation at room temperature cells were washed with PBS and 100 μl assay medium was added per well. Infected cells were incubated for another 48 h. Hereafter media were removed from the wells and cells were fixed with 4% PFA. Fixed cells were washed extensively with PBS and permeabilized with 0.25% TritonX-100 for 5 min. After blocking with 5% FB in PBS primary antibody was applied (Anti-Dengue Virus E glycoprotein antibody [DE1] (ab41349) [Abcam], 1:100 diluted in 5% FBS/PBS) for 2 h. After washing secondary antibody (Alexa Fluor® 488 Goat Anti-Mouse IgG (H+L) [Life Technologies], 1:1000 diluted in 5% FBS/PBS) was applied for 1 h. Finally, cells were stained with DAPI (500 ng/ml in PBS) for 5 min.
# Fluorescent cells were analyzed by high-content imaging using the automated microscope ImageXpressMicro [Molecular Devices] and the MetaXpress-software. […] The number of total cells/site was determined by automatically counting DAPI-stained nuclei. The percentage of DENV-positive cells was calculated by automatically evaluating the number of Alexa Fluor 488-positive cells in relation to the total cell number. […] IC50-values were calculated by non-linear regression.
# To determine a potential synergistic effect of Labyrinthopeptins A1 and A2 on DENV-infection a dose response assay was performed. […] The number of total cells as well as the percentage of Alexa Fluor 488-positive cells (=DENV positive cells) was determined by high-content fluorescence imaging.
# [8] = tested on: GFP-expressing CMV strain HT8-GFP (AD169); assay: Mode of action assay, pretreatment of CMV particles or NHDF cells; type: cell-based, Human cytomegalovirus; conditions: LabyA1 3 μM, LabyA2 7 μM, PAA 180 μM
structure (smiles),measurement,setting,value
"C/C=C1\NC(=O)[C@H](Cc2ccccc2)NC(=O)[C@@H]2CCCN2C(=O)[C@H](C(C)C)NC(=O)[C@H](Cc2c[nH]c3ccccc23)NC(=O)[C@]23CSC[C@H](NC1=O)C(=O)N[C@H](C(=O)O)CSSC[C@H](NC(=O)[C@@H]1CSC[C@]4(C[C@H](N)C(=O)N[C@@H](CC(N)=O)C(=O)N[C@@H](C)C(=O)N4)C(=O)N[C@@H](C(C)C)C(=O)N[C@@H](Cc4c[nH]c5ccccc45)C(=O)N[C@@H](CCC(=O)O)C(=O)N1)C(=O)N[C@@H](C2)C(=O)N[C@@H]([C@@H](C)O)C(=O)NCC(=O)N3 [LabyA1, Labyrinthopeptin A1]",IC50,ZIKV (Strain MR766-NIID),2.22 µM
same,inflammatory response in PBMCs,[1],does not cause an inflammatory response
same,IC50,wild-type RSV (hRSV),0.39 µM
same,CC50,[2],79.7 µM
same,cytotoxicity at the tested concentrations in the HCV assay,Huh 7.5 Fluc cells,No cytotoxicity was observed
same,IC50,KSHV,2 µM
same,IC50,[3],1.1 to 3.7 µM
same,"IC50 of the anti-viral activity, VSV",[3],2.3 to 7.7 µg/mL
same,IC50,TBEV (Toro isolate),24.1 µM
same,IC50,[4],3.87 µM
same,IC50,[5],1.3 µM
same,IC50,[5]; listed as Labyrinthopeptin A1,~1.3 µM
same,IC50,"HCV JcR2a; read-out: IC50 of the anti-viral activity, HCV (virus entry), 4 h inoculation",1.05 µM
same,IC90,"HCV JcR2a; read-out: IC90, inhibition of HCV virus entry",9.16 µM
same,"IC50 of the anti-viral activity, CHIKV",[6],1.0 to 3.5 µg/mL
same,IC50,"[6]; read-out: IC50 of the anti-viral activity, CHIKV",0.5 to 1.7 µM
same,IC50,[7],1.78 µM
C#CCCCC(=O)N[C@H]1C[C@]2(CSC[C@@H](C(=O)N[C@H]3CSSC[C@@H](C(=O)O)NC(=O)[C@@H]4CSC[C@]5(C[C@H](NC3=O)C(=O)N[C@@H]([C@@H](C)O)C(=O)NCC(=O)N5)C(=O)N[C@@H](CC(C)C)C(=O)N[C@@H](Cc3ccccc3)C(=O)N[C@@H](C)C(=O)N4)NC(=O)[C@H](CCC(=O)O)NC(=O)[C@H](Cc3c[nH]c4ccccc34)NC(=O)[C@H](CC(C)C)NC2=O)NC(=O)[C@H](Cc2c[nH]c3ccccc23)NC(=O)[C@H](CC(=O)O)NC1=O [LabyA2-hexyn],"IC50 of the anti-viral activity, DENV",[7],14.2 µg/mL
same,IC50,[7],7.03 µM
"O=C(O)CP(=O)(O)O [PAA, phosphonoacetic acid]","inhibition of viral gene expression (CMV), permanently treated, effective dose",[8]; treatment throughout the infection cycle,exerted inhibition only when permanently present in the culture medium
same,"inhibition of viral gene expression (CMV), virus pretreated",[8]; virus pretreated 1 h then diluted 16-fold,not when it was removed after pretreatment of the virus or cells
